Data set [1] has as its system Water-immersion stress-induced gastric ulcer. Briefly: Water-immersion stress-induced gastric ulcer (W.I. Method). In kind it is in vivo, rats (SD, male). The note with it: for anti-ulcer action: statement in words; for W.I. Method (inhibition ratio of ulcer index): rat, 50 mg/kg, 23° C. water immersion for five hours. How it is done: C. Water-immersion stress-induced gastric ulcer (W.I. Method)
Male SD rats (7-weeks old, weighing 190-240 g) were used after a 24 hr. fast in groups of six animals. According to the method of Takagi and Okabe [Jpn. J. Pharmacol., 18, 9 (1968)], the animals were placed in a stress cage made of stainless steel and immersed vertically to the level of xiphoid process in a water bath maintained at 23° C. for five hours. The length (mm) of individual lesions in fundic mucosa was measured under a dissecting microscope with a 1-mm square-grid eye piece (X10), and the sum of the length of individual lesions for each stomach was used as an ulcer index. The ulcer index of the test group was compared with that of the control group, and the inhibition ratio was calculated.

The subject of data set [2] is Phenylquinone writhing syndrome. Briefly: Analgesic action: Phenylquinone writhing syndrome (P.Q. Method). It is filed as in vivo, mice (Slc:ICR, male). The note with it: for analgesic action: statement in words; for P.Q. Method (inhibitory effect on writhing and stretching): mouse, oral, 30 minutes before phenylquinone. As for the experimental part:
B. Analgesic action: Phenylquinone writhing syndrome (P.Q. Method)
The test was conducted by following the method Siegmund et al. [Proc. Soc. exp. Biol. Med. 95, 729 (1957).] employing a group [ten Slc:ICR mice (male, 4-weeks old, weighing 20±2 g)]. Test compounds were administered orally 30 minutes before intraperitoneal injection of 0.02% phenylquinone by 0.1 ml/body weight of 10 g. Then, the frequency of responses, i.e. writhing and stretching was counted in each animal for 20 minutes. The average frequencies in the test group and the control group were compared, and an inhibitory effect of the compounds on this response was determined.

Another data set is described as follows: anti-pyretic action. In kind it is in vivo. The note with it: statement in words, no test data.
Another data set has as its system platelet aggregation. Briefly: platelet aggregation controlling (inhibiting) action. As to conditions: statement in words, no test data. It is filed as cell-based.
Data set [3] concerns Carrageenin edema (right-hind paw). Briefly: Anti-inflammatory activity; Carrageenin edema (C.E. Method). It is filed as in vivo, rats (Jcl: SD, male). The note with it: rat, oral, 1 h before carrageenin; edema measured 3 hr later; dose not given. As for the experimental part:
A. Anti-inflammatory activity; Carrageenin edema (C.E. Method)
The anti-inflammatory activities of test compounds were estimated in a group [Six Jcl: SD rats (male, weighing 180-220 g)] by the method of Winter et al. [Proc. Soc. Exp. Biol. 111, 544 (1962)].
After measuring the volume of the right-hind paw (a), the rats were given orally 5 ml of water. One hour after oral administration of the test compounds, 0.05 ml each of a 1% carrageenin solution in physiological saline was subcutaneously injected at the sole of right-hind paw. Three hr. later, the volume of the right-hind paw was measured (b). The volume of edema was obtained from the difference […] between the two volumes. By comparing the volume of edema of the group, to which test compound was administered, with that of the group, to which no test compound was administered, an inhibitory effect of the compound on the edema was determined.

For a further data set, the system named is mice. Briefly: Acute toxicity Test in mice. It is filed as in vivo, mice (ICR, male). The note with it: mouse, oral, 500 mg/kg, one week, groups of five. As for the experimental part: D. Acute toxicity Test in mice
Five-weeks old ICR-male mice were used in groups of five animals. Each animal was orally administered with 500 mg/kg of each test compound. Then, during the subsequent one week, the number of dead animals was counted.

For data set [4], the system named is thromboxane A2 (TXA2) synthetase. Briefly: thromboxane A2 (TXA2) synthetase inhibiting action. In kind it is biochemical. As to conditions: statement in words, no test data.

SMILES strings stand for the structures.

Turning to `CCNc1nc(-c2ccc3c(c2)CCC3)c(-c2cccnc2)s1` [2-ethylamino-4-(5-indanyl)-5-(3-pyridyl)-1,3-thiazole], the anti-ulcer action entry in data set [1] is reported as “particularly excellent”. Also, the analgesic action result in data set [2] was “particularly excellent”. Besides, the anti-pyretic action result in “anti-pyretic action” is reported as “particularly excellent”.
Take `COc1ccc(-c2nc(C3CCCCC3)sc2-c2cccnc2)cc1` [2-cyclohexyl-4-(4-methoxyphenyl)-5-(3-pyridyl)-1,3-thiazole]: in the data set with platelet aggregation, the “platelet aggregation controlling action” value is listed as “partienlarly excellent”.
Take `COc1ccc(-c2nc(N)sc2-c2cccnc2)cc1` [2-amino-4-(4-methoxyphenyl)-5-(3-pyridyl)-1,3-thiazole]: the anti-ulcer action entry in data set [1] is “particularly excellent”. In data set [2], the analgesic action result was “particularly excellent”. In addition, the anti-pyretic action result in “anti-pyretic action” is “particularly excellent”.
On to `COc1ccc(-c2nc(N)sc2-c2cccnc2)cc1` [compound 2, 2-amino-4-(4-methoxyphenyl)-5-(3-pyridyl)-1,3-thiazole], for which, in data set [1], the “W.I. Method (inhibition ratio of ulcer index)” value was 70. In addition, the “P.Q. Method (inhibitory effect on writhing and stretching)” value in data set [2] (50 mg/kg) is 52.6. The “C.E. Method (inhibitory effect on the carrageenin edema)” value in data set [3] is listed as 77.1. The “Acute Toxicity (number of dead animals / animals)” value in the data set on mice is given as 0/5.
In the case of `COc1ccc(-c2nc(N)sc2-c2ccncc2)cc1` [compound 17], the “W.I. Method (inhibition ratio of ulcer index)” value in data set [1] was 79. Further, the “P.Q. Method (inhibitory effect on writhing and stretching)” value in data set [2] (50 mg/kg) is 80.7. The “C.E. Method (inhibitory effect on the carrageenin edema)” value in data set [3] is on record as 48.2. For the same compound, the “Acute Toxicity (number of dead animals / animals)” value in the data set with mice is given as 0/5.
For `Nc1nc(-c2ccccc2)c(-c2cccnc2)s1` [Compound No. 4] the same measures were 74, 78.9, 63.7 and 0/5.
As to `CNc1nc(-c2ccc3c(c2)CCC3)c(-c2cccnc2)s1` [compound 79, 4-(5-indanyl)-2-methylamino-5-(3-pyridyl)-1,3-thiazole], the anti-ulcer action entry in data set [1] was “particularly excellent”. In addition, the analgesic action result in data set [2] was “particularly excellent”. Further, the anti-pyretic action entry in “anti-pyretic action” is recorded as “particularly excellent”.
As to `COc1ccc(-c2nc(-c3ccccc3)sc2-c2cccnc2)cc1` [2-phenyl-4-(4-methoxyphenyl)-5-(3-pyridyl)-1,3-thiazole], the “platelet aggregation controlling action” value in the data set with platelet aggregation is listed as “partienlarly excellent”.
`O=C(O)CCCc1nc(-c2ccccc2)c(-c2cccnc2)s1`: the “thromboxane synthetase inhibiting action” value in data set [4] is “particularly excellent”.
Consider `CNc1nc(-c2ccc(OC)cc2)c(-c2cccnc2)s1` [Compound No. 1, 4-(4-methoxyphenyl)-2-methylamino-5-(3-pyridyl)-1,3-thiazole], for which, in data set [1], the “W.I. Method (inhibition ratio of ulcer index)” value stood at 86 and the anti-ulcer action entry is “particularly excellent”. Further, the “P.Q. Method (inhibitory effect on writhing and stretching)” value in data set [2] (25 mg/kg) came out at 96.8. Besides, the analgesic action result in data set [2] is “particularly excellent”. For the same compound, the “C.E. Method (inhibitory effect on the carrageenin edema)” value in data set [3] worked out at 60. The “Acute Toxicity (number of dead animals / animals)” value in the data set with mice is on record as 0/5. Besides, the anti-pyretic action result in “anti-pyretic action” is reported as “particularly excellent”.
Regarding `CNc1nc(-c2ccc3c(c2)OCO3)c(-c2cccnc2)s1` [2-methylamino-4-(3,4-methylenedioxyphenyl)-5-(3-pyridyl)-1,3-thiazole], in data set [1], the anti-ulcer action result is “particularly excellent”. Moreover, the analgesic action result in data set [2] is listed as “particularly excellent”. The anti-pyretic action result in “anti-pyretic action” was “particularly excellent”.
Turning to `Nc1nc(-c2ccc(O)cc2)c(-c2cccnc2)s1` [compound 9], the “W.I. Method (inhibition ratio of ulcer index)” value in data set [1] came out at 71. Also, in data set [2] (50 mg/kg), the “P.Q. Method (inhibitory effect on writhing and stretching)” value was determined as 40.5. Besides, the “C.E. Method (inhibitory effect on the carrageenin edema)” value in data set [3] came to 16.9. Besides, the “Acute Toxicity (number of dead animals / animals)” value in the data set on mice is 0/5.
Regarding `COc1ccc(-c2nc(CCCC(=O)O)sc2-c2cccnc2)cc1` [compound 43, 2-(3-carboxypropyl)-4-(4-methoyphenyl)-5-(3-pyridyl)-1,3-thiazole], in data set [4], the “thromboxane synthetase inhibiting action” value is reported as “particularly excellent”.
`CCc1nc(-c2ccc(OC)cc2)c(-c2cccnc2)s1` [2-ethyl-4-(4-methoxyphenyl)-5-(3-pyridyl)-1,3-thiazole]: the anti-ulcer action result in data set [1] is given as “particularly excellent”. Besides, the analgesic action entry in data set [2] was “particularly excellent”. Besides, the anti-pyretic action result in the data set “anti-pyretic action” is given as “particularly excellent”.
Take `CCNc1nc(-c2ccc3c(c2)OCO3)c(-c2cccnc2)s1` [2-ethylamino-4-(3,4-methylenedioxyphenyl)-5-(3-pyridyl)-1,3-thiazole]: in data set [1], the anti-ulcer action entry is given as “particularly excellent”. Moreover, the analgesic action entry in data set [2] is given as “particularly excellent”. Besides, the anti-pyretic action result in the data set “anti-pyretic action” is recorded as “particularly excellent”.
Take `Nc1nc(-c2ccccc2)c(-c2ccccn2)s1` [compound 13]: the “W.I. Method (inhibition ratio of ulcer index)” value in data set [1] was 66. Also, in data set [2] (50 mg/kg), the “P.Q. Method (inhibitory effect on writhing and stretching)” value stood at 67.5. Further, the “C.E. Method (inhibitory effect on the carrageenin edema)” value in data set [3] turned out to be 7.0. Further, in the data set with mice, the “Acute Toxicity (number of dead animals / animals)” value is reported as 0/5.
The like results for `COc1ccc(-c2nc(-c3ccccc3)sc2-c2cccnc2)cc1` [compound 28, 2-phenyl-4-(4-methoxyphenyl)-5-(3-pyridyl)-1,3-thiazole] were, in that order, 33, 63.3, 15.7 and 0/5.
For `c1ccc(-c2nc(C3CCCCC3)sc2-c2cccnc2)cc1` [2-cyclohexyl-4-phenyl-5-(3-pyridyl)-1,3-thiazole], the “platelet aggregation controlling action” value in the data set on platelet aggregation is reported as “partienlarly excellent”.

(Values after US4612321A, “5-pyridyl-1,3-thiazole derivatives” (Takeda Chemical Industries, Inc., priority 1983, dated 1986).)
